In US10829427B2, “Naphthoquinones, pro-drugs, and methods of use thereof” (The Board of Regents of the University of Texas System, priority 2015, dated 2020):
Where two headings read alike, the source gives them in different places.

Legend:
[1] = test system: Mia PaCa-2 cells; test: ATP assay (ATP depletion / cell viability) in Mia PaCa-2 cells; type: cell-based, human
Protocol: (§1) In vitro anti-cancer activity of the compound were performed using ATP Assay Kit (Abcam, ab83355) to initially screen, and further performed using 7-day DNA assay.
(§2) Cell culture: endogenous NQO1 overexpressing human MIA PaCa-2 pancreactic and A549 NSCLC cancer cells were obtained (Bey, et al., 2007; Li, et al., 2011). Cancer cells were grown in DMEM with 5% FBS and Mycoplasma free, and cultured at 37° C. in a 5% CO2 95% air humidified atmosphere.
ATP assay: Cells were seeded into each well of a 96-well plate (15000 cells/well) 18 hours ahead of experiment. After aspiration of the media from each well, 100 μl drug-contained media was added instead, and further incubated for 2 hours. After incubation, 100 μl ATP assay kit mixture was added into every well. Following further shaking for 10 minutes with light proof, the data were collected by reading luminescence integrate 1 second per well.

[2] = test system: A549 cells; test: Cell viability in A549 cells (7-day DNA assay); type: cell-based, human; details: relative to β-lapachone
Protocol: as §1, §2
DNA assay: Cells were seeded into each well of a 48-well plate (10000 cells/well) 24 hours ahead of experiment. After aspiration of the media from each well, 500 μl drug-contained media was added instead, and further incubated for 2 hours. Drugs were then removed, control growth medium was added, and cells were allowed to grow for an additional 7 days. Drugs were added to medium at a 1:1000 dilution immediately before administration to cells. DNA content (a measure of cell growth) was determined by fluoresence of the DNA dye Hoescht 33258 (Sigma), and read in a Cytofluor fluoresence plate reader. Data were expressed as relative growth with 6 repetitions.

[3] = test system: MCF-7; test: Relative survival DNA assay, MCF-7, with or without dicoumarol; type: cell-based, human; details: for IC50: Homo sapiens, read-out: Inhibition of cell survival of DNA assay IC50
Protocol: (§3) Cell Lines and Culture. Endogenous NQO1 overexpressing human MiaPaca-2 (pancreatic carcinoma), A549 (None-small cell lung carcinoma), and MCF-7 (breast adenocarcinoma) were obtained (Bey, et al., 2007; Li, et al., 2011). All cell lines were grown in DMEM (Life Technologies) containing 5%-10% FBS (Fisher Scientific) in a 5% CO2 and 95% air incubator at 37° C.
(§4) Relative Survival Assays. Relative survival was assessed by DNA content and colony forming assays as described (Dong, et al., 2010). Briefly, for DNA content, cells were seeded at 1×10^4 per well in 48-well plates and allowed to attach overnight. Cells were then mock treated or treated with various doses of naphthaquinones (for 2 hours) in the presence or absence of dicoumarol as indicated. Drug-free medium was then added and cells were allowed to grow for 5 to 7 days until control cells reached ˜100% confluence. DNA content was then determined by Hoechst 33258 staining and fluorescence detection using a plate reader (Perkin-Elmer).

[4] = test system: A549; test: Relative survival DNA assay, A549, with or without dicoumarol; type: cell-based, human; details: for IC50: Homo sapiens, read-out: Inhibition of cell survival of DNA assay IC50
Protocol: as §3, §4

[5] = test system: MiaPaca 2; test: Relative survival DNA assay, MiaPaca 2, with or without dicoumarol; type: cell-based, human; details: for IC50: Homo sapiens, read-out: Inhibition of cell survival of DNA assay IC50
Protocol: as §3, §4

[6] = test system: orthotopic A549 model; test: In vivo anti-tumor efficacy, NOD-SCID mice bearing orthotopic A549 model
Protocol: Formulation. β-lap-HPβCD formulation was prepared according to our previous report.^14 NQ-059 and HPβCD (1:45, w/w) were dissolved in EtOH, and then concentrated in vacuo to form a thin film or a sponge-like film. PBS was added, and a clear solution was formed with shaking. Immediately filtration through a Ø 0.45 µm filter (Whatman), a stable solution was afforded, whose concentration was quantified by UV-vis at 256 nm.
(§5) Survival and Antitumor Efficacies. 6- to 8-week-old NOD-SCID female mice were tail-vein administrated with luciferase gene-transfected A549 cells (1.0×106), and randomized into groups (n=7-13/group), monitored for tumor formation in the lungs using bioluminescence (BLI) following treatment with vehicle, β-lap-HPβCD, or NQ-059-HPβCD. An average of 1.0×10^7 total photons was used before any therapies were given as described (Huang, et al., 2012). Animals were treated with vehicle, β-lap-HPβCD (20 mg/kg), or NQ-059-HPβCD (15 and 12 mg/kg) via tail vein and repeated five times every 3 days. Tumor-bearing mice were imaged using BLI to estimate relative tumor volumes as described (Ma, et al., 2015) using D-luciferin (Promega, 2.5 mg, subcutaneously injected). Relative tumor volume estimates were derived from BLI images of mice captured using a Xenogen Vivovision IVIS Lumina Imager (60 s exposure time). Animals were monitored daily for survival and morbidity. Mortality was recorded over times as a result of cancer-related deaths or drug-related toxicities (≥20% body weight loss relative to the start of therapy). Athymic Nu/Nu nude female mice (18-20 grams) were commercially obtained (Harlan). Human xenografts were generated by injecting 2×10^6 MiaPaca-2 cells subcutaneously in PBS/Matrigel into 6-week-old mice. Tumors were measured at indicated times with digital calipers (Fisher Scientific), and tumor volumes calculated (length×width^2×0.5). Treatments were initiated when subcutaneous tumors reached an average size of >100 mm (Cao, et al., 2003).

[7] = test system: H596; test: Relative survival DNA assay, H596 (low NQO1 expression); type: cell-based
Protocol: as §4

[8] = test system: subcutaneous MiaPaca-2 model; test: In vivo anti-tumor efficacy, nude mice bearing subcutaneous MiaPaca-2 model; parameters: species or system Athymic Nu/Nu nude female mice; details: subcutaneous MiaPaca-2 tumor model, FIG. 8
Protocol: as §5, with “Human xenografts were generated by injecting 2×10^6 MiaPaca-2 cells subcutaneously in PBS/Matrigel into 6-week-old mice.” left out, “Treatments were initiated when subcutaneous tumors reached an average size of >100 mm (Cao, et al., 2003).” left out

[9] = test system: red blood cells; test: Methemoglobinemia assay; details: formulated with cyclodextran 1:30; relative to a blank cyclodextran or a DMSO vehicle, FIG. 10
Protocol: Methemoglobinemia assay. Collected red blood cells were suspended in 96 well plates or single wells, then were treated with drug for certain time at 37° C. Immediately after the treatment completed, the cells were sit in ice-bath and lysed with 5% Triton X-100. The clear solution afforded were tested with UV-vis at 630 nm, and then were treated with […] K3FeCN6 for 1 min. The yellow solution afforded was tested again at 630 nm.

[10] = test system: blood; test: Hemolysis assay; details: formulated with cyclodextran 1:30; relative to a blank cyclodextran or a DMSO vehicle, FIG. 9
Source text: Hemolysis assay. Hemolysis was quantified and modified according to method previously described (Blanco, et al., 2010). Briefly, after treatment with the blood, the plasma was separated and tested with UV-Vis at 576 nm, and hemolysis was quantified comparing treatment group and control group.

Compound: CC(=O)Nc1cccc2c1C(=O)C(=O)C=C2OC(C)C [Compound 24, N-(5-isopropoxy-7,8-dioxo-7,8-dihydronaphthalen-1-yl)acetamide]
- Fold (IC50 β-lap/IC50 NQ-059) ([1]; ATP assay, MiaPac-2, Vehicle): 2.9
- IC50 ([1]; Homo sapiens, MIA PaCa-2, MiaPac-2, Vehicle, read-out: Inhibition of cell viability of ATP assay IC50): 970 nM
- IC50/IC50 (β-lapachone/Compoud) ([1]; Relative activity compare with β-lapachone in ATP depletion of Mia PaCa-2 cells): >3
- IC50/IC50 (β-lapachone/Compoud) [2]: >3
- Fold (IC50 β-lap/IC50 NQ-059) ([3]; DNA assay, MCF-7, Vehicle): 2.2
- IC50 ([3]; MCF7, MCF-7, Dic (dicoumarol, NQO1 inhibitor)): > 10000 nM
- IC50 ([3]; MCF7, MCF-7, Vehicle): 950 nM
- DNA amount in survival assay relative to β-lapachone ([3]; MCF-7, FIGS. 4D-4F): decreased DNA amounts at lower concentrations relative to β-lapachone
- Activity relative to β-lapachone on the same plate ([4]; A549, FIG. 5B): increased activity
- DNA amount in survival assay relative to β-lapachone ([4]; A549, FIGS. 4G-4I): decreased DNA amounts at lower concentrations relative to β-lapachone
- Fold (IC50 β-lap/IC50 NQ-059) ([4]; DNA assay, A549, Vehicle): 3.9
- IC50 ([4]; A549, A549, Dic (dicoumarol, NQO1 inhibitor)): > 10000 nM
- IC50 ([4]; A549, A549, Vehicle): 1250 nM
- Fold (IC50 β-lap/IC50 NQ-059) ([5]; DNA assay, MiaPaca 2, Vehicle): 4.9
- IC50 ([5]; MIA PaCa-2, MiaPaca 2, Dic (dicoumarol, NQO1 inhibitor)): > 10000 nM
- IC50 ([5]; MIA PaCa-2, MiaPaca 2, Vehicle): 880 nM
- Activity relative to β-lapachone on the same plate ([5]; MiaPac2, FIG. 5A): increased activity
- DNA amount in survival assay relative to β-lapachone ([5]; MiaPaca 2, FIGS. 4A-4C): decreased DNA amounts at lower concentrations relative to β-lapachone
- Tumor growth via bioluminescence imaging ([6]; after 74 days, 12 mg/kg): some growth
- Tumor growth via bioluminescence imaging ([6]; after day 44, 12 mg/kg): Neither 12 mg/kg or 15 mg/kg NQ-059 showed any tumor growth
- Tumor growth via bioluminescence imaging ([6]; after day 44, 15 mg/kg): Neither 12 mg/kg or 15 mg/kg NQ-059 showed any tumor growth
- Tumor volume relative to vehicle ([6]; orthotopic A549, FIG. 7B): significantly improved over the vehicle
- Survival relative to vehicle ([6]; orthotopic A549, FIG. 7C): significantly improved over the vehicle
- DNA amount in survival assay ([7]; H596, FIG. 4J): lowest amount of DNA at the lowest concentration
- IC50 ([7]; Homo sapiens, NCI-H596, H596 (low NQO1 expression), Vehicle, read-out: Inhibition of cell survival of DNA assay IC50): > 10000 nM
- Tumor volume relative to the vehicle [8]: statistically significant improvement
- Methemoglobinemia [9]: reduced toxicity
- Hemolysis [10]: reduced toxicity
